Measured values: patent publication US8008250B2, “Macrocyclic compounds and compositions useful as BACE inhibitors” (Novartis AG, priority 2005, dated 2011)

Columns and labels:
human BACE = molecular target: T1, human BACE (Homo sapiens, UniProt P56817); assay: Test 1: Inhibition of Human BACE; assay type: biochemical; details: test not named; sentence follows 'at least one of the above-indicated tests'; assigned to BACE Test 1
T1 construct: Recombinant BACE (extracellular domain, expressed in baculovirus and purified using standard methods); made in house
T1 sequence (P56817 46-457 limits assumed): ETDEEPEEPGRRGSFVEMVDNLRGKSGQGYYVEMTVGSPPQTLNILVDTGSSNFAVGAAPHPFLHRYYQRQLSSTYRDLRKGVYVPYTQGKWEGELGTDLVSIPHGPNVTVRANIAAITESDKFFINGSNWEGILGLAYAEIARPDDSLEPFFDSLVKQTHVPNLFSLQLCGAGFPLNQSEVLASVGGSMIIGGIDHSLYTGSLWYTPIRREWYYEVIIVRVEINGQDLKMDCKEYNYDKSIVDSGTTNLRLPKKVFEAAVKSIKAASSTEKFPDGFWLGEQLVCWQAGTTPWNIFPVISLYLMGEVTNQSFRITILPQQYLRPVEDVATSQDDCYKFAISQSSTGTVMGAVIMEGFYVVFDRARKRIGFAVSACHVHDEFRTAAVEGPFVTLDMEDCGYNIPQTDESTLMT
Protocol: Test 1: Inhibition of Human BACE
Recombinant BACE (extracellular domain, expressed in baculovirus and purified using standard methods) at 6 nM concentration is incubated with the test compound at various concentrations for 1 hour at room temperature in 100 mM acetate buffer, pH 4.5, containing 0.1% CHAPS. Synthetic peptide substrate Mca-Ser-Glu-Val-Asn-Leu-Asp-Ala-Glu-Phe-Lys(DNP) (SEQ ID NO: 1) is added to a final concentration of 3 μM and the increase in fluorescence is recorded at excitation of 325 nm and emission at 400 nm in a microplate spectro-fluorimeter for 20 minutes in 1-minute intervals. IC50 values are calculated from percentage of inhibition of BACE-activity as a function of the test compound concentration.

SMILES | IC50 (human BACE) | melting point
CC(C)c1cccc(CNC[C@@H](O)[C@@H]2Cc3cccc(c3)CCCCCCC(=O)N(C)[C@@H](C)C(=O)N2)c1 [Example 4, (3S,6S)-3-[(R)-1-Hydroxy-2-(3-isopropyl-benzylamino)-ethyl]-6,7-dimethyl-4,7-diaza-bicyclo[13.3.1]nonadeca-1(18),15(19),16-triene-5,8-dione] | 250 nM | –
CC(C)c1cccc(CNC[C@@H](O)[C@@H]2Cc3cccc(c3)OCCCCS(=O)(=O)C[C@@H](C)C(=O)N2)c1 [Example 6, (9S,12S)-12-[(R)-1-Hydroxy-2-(3-isopropyl-benzylamino)-ethyl]-9-methyl-7,7-dioxo-2-oxa-7lambda*6*-thia-11-aza-bicyclo[12.3.1]octadeca-1(18),14,16-trien-10-one] | – | 148 to 150 °C
CC(C)c1cccc(CNC[C@@H](O)[C@@H]2Cc3cccc(c3)OCCCCCC(=O)N(C)[C@@H](C)C(=O)N2)c1 [Example 1, (10S,13S)-13-[(R)-1-Hydroxy-2-(3-isopropyl-benzylamino)-ethyl]-9,10-dimethyl-2-oxa-9,12-diaza-bicyclo[13.3.1]nonadeca-1(19),15,17-triene-8,11-dione] | – | 132 to 135 °C
